According to patent US12617812B2, “Platinum(IV) complexes, methods of manufacture, compositions containing, and methods of use thereof” (City University of Hong Kong, priority 2021, dated 2026):

Assays:
[1] = system: cisplatin-resistant A549cisR cells; assay: MTT cytotoxicity test, A549cisR cells; type: cell-based, Human; details: 6 h treatment
Procedure: (§1) Human lung carcinoma A549 cells (American Type Culture Collection, ATCC), and cisplatin-resistant A549cisR cells (American Type Culture Collection, ATCC) are cultured in DMEM with 10% FBS and 100 µg/mL penicillin/streptomycin. Human ovarian carcinoma A2780 and cisplatin-resistant A2780cisR cells are cultured in RPMI-1640 with 10% FBS, 1% L-Glutamine, and 100 µg/mL penicillin/streptomycin. Human lung fibroblast MRC-5 cells (American Type Culture Collection, ATCC) are cultured in MEM with 10% FBS, 1% NEAA, 1% L-Glutamine, 1% sodium pyruvate, and 100 µg/mL penicillin/streptomycin. For A2780cisR and A549cisR cells, 2 μM of cisplatin is added into the culture medium after the attachment to maintain the resistance. All the cells are cultured at 37° C. in 5% CO2.
(§2) The cytotoxic profiles of the various complexes against selected cell lines are obtained by a 3-(4,5-Dimethylthiazol-2-yl)-2,5-diphenyltetrazolium bromide (MTT) assay. Cells are seeded into 96-well plates at a density of 2,500 cells per well (for A549, and A2780) or 5,000 cells per well (for A549cisR, A2780cisR, and MRC-5) and incubated for 24 h. Cells are then treated with medium containing various concentrations of complexes for 6 h. The medium is replaced by phenol-red free medium. Then cells are irradiated with near-infrared radiation (880 nm, 0.4 W/cm^2) for 80 min. After irradiation, cells are further incubated in fresh medium for 18 h at 37° C. Then, the culture medium is removed, cells are then incubated with FBS free medium containing 1 mg/mL MTT for 2 h. Medium containing MTT is removed and 150 μL DMSO is added to each well. The absorbance is measured at 570 and 630 nm. […]

[2] = system: Human lung carcinoma A549 cells; assay: MTT cytotoxicity test, A549 cells; type: cell-based; details: 6 h treatment
Procedure: as §1, §2

[3] = system: Human ovarian carcinoma A2780 cells; assay: MTT cytotoxicity test, A2780 cells; type: cell-based; details: 6 h treatment
Procedure: as §1, §2

[4] = system: Human lung fibroblast MRC-5 cells; assay: MTT cytotoxicity test, MRC-5 cells; type: cell-based; details: in the dark with no irradiation, 6 h treatment
Procedure: as §1
The cytotoxic profiles of the various complexes against selected cell lines are obtained by a 3-(4,5-Dimethylthiazol-2-yl)-2,5-diphenyltetrazolium bromide (MTT) assay. Cells are seeded into 96-well plates at a density of 2,500 cells per well (for A549, and A2780) or 5,000 cells per well (for A549cisR, A2780cisR, and MRC-5) and incubated for 24 h. Cells are then treated with medium containing various concentrations of complexes for 6 h. The medium is replaced by phenol-red free medium. Then cells are irradiated with near-infrared radiation (880 nm, 0.4 W/cm^2) for 80 min. After irradiation, cells are further incubated in fresh medium for 18 h at 37° C. Then, the culture medium is removed, cells are then incubated with FBS free medium containing 1 mg/mL MTT for 2 h. Medium containing MTT is removed and 150 μL DMSO is added to each well. The absorbance is measured at 570 and 630 nm.
Cells are treated with the indicated complex for 6 h, the culture medium is replaced with fresh medium and irradiated with or without blue light for 1 h. Then cells are cultured for another 42 h.

[5] = system: cisplatin-resistant A2780cisR cells; assay: MTT cytotoxicity test, A2780cisR cells; type: cell-based, Human; details: 6 h treatment
Procedure: as §1, §2

[6] = A549cisR*, in the dark with no irradiation
[7] = A549*, in the dark with no irradiation
[8] = in the dark with no irradiation
[9] = mark * (dark), position of the irradiated row
[10] = A2780cisR*, in the dark with no irradiation

Structure (SMILES) | IC50 ([1]; A549cisR**, with irradiation) | IC50 [1, 6] | IC50 ([2]; A549**, with irradiation) | IC50 [2, 7] | IC50 [3, 8] | IC50 [3, 9] | IC50 [4] | IC50 ([5]; A2780cisR**, with irradiation) | IC50 [5, 10]
N.N.O=C([O-])C1(C(=O)[O-])CCC1.[Pt+2] [Carboplatin, reference compound] | > 700 µM | > 700 µM | 435 ± 42.9 µM | 418 ± 33.6 µM | 303 ± 34.8 µM | 336 ± 43.8 µM | 690 ± 38.5 µM | 630 ± 43.2 µM | 668 ± 51.1 µM
CCN(CC)c1ccc2cc(C(=O)/C=C/c3ccc(N(C)CCC(=O)[O][Pt]4([NH2])([NH2])([OH])[O]C(=O)C5(CCC5)C(=O)[O]4)cc3)c(=O)oc2c1 [Complex 4] | 18.9 ± 4.3 µM | > 50 µM | 17.7 ± 5.1 µM | > 50 µM | > 50 µM | 10.7 ± 2.2 µM | > 50 µM | 11.2 ± 2.8 µM | > 50 µM
CCN(CC)c1ccc2cc(C(=O)/C=C/c3ccc(N(C)CCC(=O)[O][Pt]4([NH2])([NH2])([O]C(=O)Cc5cccc6c(=O)c7ccc(C)c(C)c7oc56)[O]C(=O)C5(CCC5)C(=O)[O]4)cc3)c(=O)oc2c1 [Complex 6] | 12.6 ± 2.1 µM | > 50 µM | 11.6 ± 1.2 µM | > 50 µM | > 50 µM | 11.4 ± 1.5 µM | > 50 µM | 12.7 ± 1.9 µM | > 50 µM
O=C1[O][Pt]2([NH][C@@H]3CCCC[C@H]3[NH]2)[O]C1=O [Oxaliplatin, reference compound] | 269 ± 16.3 µM | 258 ± 11.6 µM | 104 ± 8.2 µM | 97.2 ± 7.5 µM | 86.5 ± 7.7 µM | 73.7 ± 5.9 µM | 213 ± 16.4 µM | 254 ± 18.2 µM | 250 ± 12.6 µM
